In PubChem BioAssay (NCI):
Values joined by “and” are separate entries in the source; they are usually repeats but may differ in a detail not shown here. Equal values may be shown once.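 Assay format: 96-well plates, 48-hour exposure. GI50 marks 50% less growth. The concentration for full growth arrest is given as TGI.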

Experiments:
Experiment in all cases: inhibition of tumour cell growth, NCI panel, 48 h
CAKI-1 renal = tested on: CAKI-1 renal
HCT-15 colon = tested on: HCT-15 colon
OVCAR-4 ovarian = tested on: OVCAR-4 ovarian
OVCAR-5 ovarian = tested on: OVCAR-5 ovarian
SF-268 CNS = tested on: SF-268 CNS
SW-620 colon = tested on: SW-620 colon
UACC-257 melanoma = tested on: UACC-257 melanoma
M14 melanoma = tested on: M14 melanoma
SNB-75 CNS = tested on: SNB-75 CNS
HOP-62 NSCLC = tested on: HOP-62 NSCLC

SMILES | GI50 (CAKI-1 renal) | TGI (CAKI-1 renal) | GI50 (HCT-15 colon) | TGI (HCT-15 colon) | GI50 (OVCAR-4 ovarian) | TGI (OVCAR-4 ovarian) | GI50 (OVCAR-5 ovarian) | TGI (OVCAR-5 ovarian) | GI50 (SF-268 CNS) | TGI (SF-268 CNS) | GI50 (SW-620 colon) | TGI (SW-620 colon) | GI50 (UACC-257 melanoma) | TGI (UACC-257 melanoma) | TGI (M14 melanoma) | TGI (SNB-75 CNS) | GI50 (HOP-62 NSCLC) | TGI (HOP-62 NSCLC) | GI50 (SNB-75 CNS) | GI50 (M14 melanoma)
CN(CCC#N)c1ccc(/C=C(\C#N)c2ccc(Br)cc2)cc1 | > 100 µM | > 100 µM | 2.9 µM | > 100 µM | > 100 µM | > 100 µM | > 100 µM | > 100 µM | > 100 µM | > 100 µM | 3.87 µM | > 100 µM | > 100 µM | > 100 µM |  |  |  |  |  | 
O=C1NC2OC(C(O)CO)C(O)C2O1 (stereo unspecified) |  | > 100 µM |  | > 100 µM |  | > 100 µM |  | > 100 µM |  | > 100 µM |  | > 100 µM |  | > 100 µM | > 100 µM | > 100 µM |  |  |  | 
O=c1cc(NC2CCN(CCCc3ccccc3)CC2)c2cc(Cl)ccc2o1 | 12.4 µM | 25.6 µM | 3.89 µM | 17.4 µM | 13.2 µM | 35.6 µM | 10.8 µM | 24.6 µM | 14.3 µM | 28.3 µM | 15 µM | 30.5 µM | 15.4 µM | 30 µM |  | 21.1 µM | 17.3 µM | 33.3 µM | 8.1 µM | 
CC(=O)C(=CN1CCN(C(=O)c2ccco2)C1=S)C(C)=O | 5.19 µM | 19.1 µM | 2.16 µM | 5.55 µM | 10.6 µM | 32.7 µM |  |  | 2.57 µM | 6.72 µM | 14.6 µM | 31.3 µM | 2.51 µM | 12.1 µM | 15.4 µM | 71.4 µM | 22 µM | 41.7 µM | 9.02 µM | 4.03 µM
COc1ccc(/C=C/C(=O)C(CC2CCC2)C(=O)/C=C/c2ccc(OC)c(OC)c2)cc1OC |  |  | 1.28 µM | 3.9 µM | 2.34 µM | > 100 µM | 2.55 µM | 5.6 µM | 2.58 µM | 9.51 µM | 1.55 µM | 3.57 µM | 1.86 µM | 3.41 µM |  | 2.74 µM |  |  | 1.32 µM | 
Nc1ccc2cc3ccc(N)cc3nc2c1 | 0.723 µM |  | 1.95 µM [middle of 4 runs] |  | 1.21 µM [middle of 4 runs] | 4.23 µM [middle of 4 runs] | 1.97 µM | 4.98 µM and 30.1 µM and 28.6 µM | 1.12 µM | 10.2 µM [middle of 4 runs] |  |  | 0.994 µM | 5.03 µM [middle of 4 runs] |  | 3.25 µM [middle of 4 runs] | 0.795 µM |  |  | 1.77 µM [middle of 4 runs]
COc1cc(NC(C)CCCN)c2nccc(C)c2c1 (stereo unspecified) |  | 56 µM |  | 49.7 µM |  | 59.9 µM |  | > 100 µM |  | > 100 µM |  |  |  |  | 33.7 µM | 37.1 µM |  | 34 µM |  | 
Cc1c(C(=O)/C=C/c2ccccc2)[n+](=O)c2ccccc2n1[O-] |  | 45.7 µM |  |  |  | 33 µM |  | 30.7 µM |  | 40.1 µM |  | 28.3 µM |  | 31.3 µM | 29.1 µM | 64.7 µM |  | 37.9 µM |  | 
c1ccc(C2Nc3ccccc3C3OCCCC23)cc1 (stereo unspecified) |  | 42.3 µM |  | > 100 µM |  | > 100 µM |  | > 100 µM |  | > 100 µM |  | > 100 µM |  | > 100 µM |  |  |  |  |  | 
CCCCCCCCCCCCCCCCCCOc1ccccc1CC(=O)OCC[N+]1(C)CCCC1 | 1.6 µM | 4.05 µM | 4.1 µM | 21 µM | 2.94 µM | 12.1 µM | 2.02 µM | 5.31 µM | 1.55 µM | 3.34 µM |  |  | 2.82 µM | 9.12 µM | 5.46 µM | 3.07 µM |  |  | 1.26 µM | 2.28 µM
Cn1c2ccccc2c(=O)c2ccc(Cl)cc21 |  |  |  | > 10 µM |  | > 10 µM |  |  |  | > 10 µM |  | > 10 µM |  |  |  | > 10 µM |  | > 10 µM |  | 
C/C(CC(=O)NCCc1ccccc1)=N\NC(=O)C[n+]1ccccc1 |  |  |  | > 100 µM |  |  |  | > 100 µM |  | > 100 µM |  | > 100 µM |  | > 100 µM | > 100 µM | > 100 µM |  | > 100 µM |  | 
NC(=O)NCc1c(C(N)=O)ncn1Cc1ccccc1 |  | > 100 µM |  | > 100 µM |  | > 100 µM |  |  |  |  |  | > 100 µM |  | > 100 µM | > 100 µM | > 100 µM |  | > 100 µM |  | 
CC(CO)(CO)NCCCCn1ccc2c1C(=O)c1c(c(O)c3ccccc3c1O)C2=O | 13.6 µM | 30.4 µM |  |  |  |  | 16 µM | 29.5 µM | 14.4 µM | 40.9 µM | 5.47 µM | 29.2 µM |  |  | 3.41 µM |  | 14 µM | 28.9 µM |  | 1.73 µM
CC(C)C[C@H](NC(=O)/C=C/Cn1ccc2ccccc2c1=O)B(O)O | 4.95 µM | > 100 µM | 6.55 µM | 48.2 µM |  |  | 4.36 µM | 39.8 µM | 4.98 µM | 51.5 µM | 3.55 µM | > 100 µM | 2.12 µM | 7.02 µM | 10.1 µM | 16.3 µM | 4.9 µM | 25.9 µM | 3.2 µM | 2.92 µM
CC1=C(O)C(=O)C=C2C1=CC=C1[C@@]2(C)CC[C@@]2(C)[C@@H]3C[C@](C)(C(=O)O)CC[C@]3(C)CC[C@]12C |  | 0.0375 µM |  | 0.0282 µM |  | 0.174 µM |  | 0.332 µM |  | 0.106 µM |  |  |  | 0.1 µM | 0.141 µM | 0.327 µM |  | 0.963 µM |  | 
S=C1OC2CCCC[C@H]2O1 (stereo partly specified) |  | > 100 µM |  |  |  | > 100 µM |  | > 100 µM |  | > 100 µM |  | > 100 µM |  | > 100 µM | > 100 µM | > 100 µM |  | > 100 µM |  | 
O=C1/C(=C/c2cccc([N+](=O)[O-])c2)COc2ccc(Br)cc21 |  |  |  |  |  |  |  | > 100 µM |  | > 100 µM |  | > 100 µM |  | > 100 µM |  | > 100 µM |  | > 100 µM |  | 
COc1c(CCl)cc(-c2cc(=O)c3ccccc3s2)cc1CCl |  | > 100 µM |  | > 100 µM |  | 16.4 µM |  | > 100 µM |  | > 100 µM |  |  |  | > 100 µM | > 100 µM | 24.9 µM |  | 32.6 µM |  | 
